Active and inactive are the calls of the source. How the calls were made is not given here.

This series has as its system CCRIS mutagenicity, Ames/micronucleus/aberration tests. As to the kind of experiment: CCRIS mutagenicity studies.
Setting [1] is: Test System: AMES SALMONELLA TYPHIMURIUM, Strain/Indicator: TA98, Metabolic Activation: NONE, Method: PREINCUBATION
The mark [2] stands for this setting: Test System: AMES SALMONELLA TYPHIMURIUM, Strain/Indicator: TA98, Metabolic Activation: NONE, Method: STANDARD PLATE.
Setting [3] is: Test System: AMES SALMONELLA TYPHIMURIUM, Strain/Indicator: TA100, Metabolic Activation: NONE, Method: PREINCUBATION
Where [4] appears, read: Test System: AMES SALMONELLA TYPHIMURIUM, Strain/Indicator: TA100, Metabolic Activation: NONE, Method: STANDARD PLATE.
[5] abbreviates: Test System: AMES SALMONELLA TYPHIMURIUM, Strain/Indicator: TA100, Metabolic Activation: RAT, LIVER, S-9, AROCLOR 1254, Method: STANDARD PLATE.
[6] abbreviates: Test System: AMES SALMONELLA TYPHIMURIUM, Strain/Indicator: TA1538, Metabolic Activation: NONE, Method: STANDARD PLATE.
The mark [7] stands for this setting: Test System: AMES SALMONELLA TYPHIMURIUM, Strain/Indicator: TA1538, Metabolic Activation: RAT, LIVER, S-9, AROCLOR 1254, Method: STANDARD PLATE.

For `c1ccc2nccnc2c1`, the mutagenic call is “inactive; negative” (Test System: AMES SALMONELLA TYPHIMURIUM, Strain/Indicator: TA98, Metabolic Activation: HAMSTER, LIVER, S-9, AROCLOR 1254, Method: STANDARD PLATE); “inactive; negative” under setting [1]; “inactive; negative” under setting [2]; “active; positive” (Test System: AMES SALMONELLA TYPHIMURIUM, Strain/Indicator: TA98, Metabolic Activation: RAT, LIVER, S-9, AROCLOR 1254, Method: PREINCUBATION); “inactive; negative” (Test System: AMES SALMONELLA TYPHIMURIUM, Strain/Indicator: TA98, Metabolic Activation: RAT, LIVER, S-9, AROCLOR 1254, Method: STANDARD PLATE); “inactive; negative” (Test System: AMES SALMONELLA TYPHIMURIUM, Strain/Indicator: TA100, Metabolic Activation: HAMSTER, LIVER, S-9, AROCLOR 1254, Method: STANDARD PLATE). Moreover, the mutagenic call is “inactive; negative” under setting [3]; “inactive; negative” under setting [4]; “inactive; negative” (Test System: AMES SALMONELLA TYPHIMURIUM, Strain/Indicator: TA100, Metabolic Activation: RAT, LIVER, S-9, AROCLOR 1254, Method: PREINCUBATION); “inactive; negative” under setting [5]; “inactive; negative” (Test System: AMES SALMONELLA TYPHIMURIUM, Strain/Indicator: TA102, Metabolic Activation: NONE, Method: PREINCUBATION); “inactive; negative” (Test System: AMES SALMONELLA TYPHIMURIUM, Strain/Indicator: TA102, Metabolic Activation: RAT, LIVER, S-9, AROCLOR 1254, Method: PREINCUBATION). In addition, the mutagenic call was “inactive; negative” (Test System: AMES SALMONELLA TYPHIMURIUM, Strain/Indicator: TA1535, Metabolic Activation: HAMSTER, LIVER, S-9, AROCLOR 1254, Method: STANDARD PLATE); “inactive; negative” (Test System: AMES SALMONELLA TYPHIMURIUM, Strain/Indicator: TA1535, Metabolic Activation: NONE, Method: STANDARD PLATE); “inactive; negative” (Test System: AMES SALMONELLA TYPHIMURIUM, Strain/Indicator: TA1535, Metabolic Activation: RAT, LIVER, S-9, AROCLOR 1254, Method: STANDARD PLATE); “inactive; negative” (Test System: AMES SALMONELLA TYPHIMURIUM, Strain/Indicator: TA1537, Metabolic Activation: HAMSTER, LIVER, S-9, AROCLOR 1254, Method: STANDARD PLATE); “inactive; negative” (Test System: AMES SALMONELLA TYPHIMURIUM, Strain/Indicator: TA1537, Metabolic Activation: NONE, Method: STANDARD PLATE); “inactive; negative” (Test System: AMES SALMONELLA TYPHIMURIUM, Strain/Indicator: TA1537, Metabolic Activation: RAT, LIVER, S-9, AROCLOR 1254, Method: STANDARD PLATE). Also, the mutagenic call reads like this: (Test System: AMES SALMONELLA TYPHIMURIUM, Strain/Indicator: TA1538, Metabolic Activation: HAMSTER, LIVER, S-9, AROCLOR 1254, Method: STANDARD PLATE) “inactive; negative”; under setting [6], “inactive; negative”; under setting [7], “inactive; negative”; (Test System: Mouse lymphoma, Strain/Indicator: L5178Y (tk+/tk-), Metabolic Activation: None, Method: Suspension/plate) “inactive; negative”; (Test System: Mouse lymphoma, Strain/Indicator: L5178Y (tk+/tk-), Metabolic Activation: Rat, Liver, S-9, Aroclor 1254, Method: Suspension/plate) “active; positive”.

For `O=c1ccc2cc3c4c(c2o1)CCCN4CCC3`, the mutagenic call by setting is: under setting [6], “inactive; negative”; under setting [7], “active; positive”.

For `Cc1ccc(C)c2c3c(ccc12)C(O)C(O)C1OC31` (configuration not stated), the mutagenic call was “active; positive” under setting [2] and “active; positive” under setting [4].

As for `Cc1cc2cc3ccccc3cc2c2ccccc12`, the mutagenic call is “active; positive” (Test System: AMES SALMONELLA TYPHIMURIUM, Strain/Indicator: TA100, Metabolic Activation: RAT, INTACT HEPATOCYTES, AROCLOR 1254, Method: PREINCUBATION); “active; positive” (Test System: AMES SALMONELLA TYPHIMURIUM, Strain/Indicator: TA100, Metabolic Activation: RAT, NADPH-FORTIFIED HOMOGENIZED HEPATOCYTES, AROCLOR 1254, Method: PREINCUBATION); “active; positive” (Test System: AMES SALMONELLA TYPHIMURIUM, Strain/Indicator: TA100, Metabolic Activation: RAT, SONICATED HEPATOCYTES, AROCLOR 1254, Method: PREINCUBATION).

Consider `Nc1nc(-c2ccccc2)c(Br)c(=O)[nH]1`, for which the mutagenic call was “active; positive” (Test System: CHINESE HAMSTER OVARY, Strain/Indicator: CHO (HGPRT), Metabolic Activation: RAT, LIVER, S-9, AROCLOR 1254); “inactive; negative” (Test System: MOUSE LYMPHOMA, Strain/Indicator: L5178Y (TK+/TK-), Metabolic Activation: NONE, Method: SUSPENSION/PLATE); “inactive; negative” (Test System: MOUSE LYMPHOMA, Strain/Indicator: L5178Y (TK+/TK-), Metabolic Activation: RAT, LIVER, S-9, AROCLOR 1254, Method: SUSPENSION/PLATE).

With `[CH3][Sn]([CH3])([Cl])[Cl]`, the mutagenic call (Test System: AMES SALMONELLA TYPHIMURIUM, Strain/Indicator: TA98, Metabolic Activation: NONE, Method: SUSPENSION/PLATE) was “inactive; negative” and the mutagenic call (Test System: AMES SALMONELLA TYPHIMURIUM, Strain/Indicator: TA100, Metabolic Activation: NONE, Method: SUSPENSION/PLATE) was “inactive; negative”.

Take `Nc1ccc(Cc2ccc(N)c(C(=O)O)c2)cc1C(=O)O`: the mutagenic call runs as follows: under setting [1], “inactive; negative”; (Test System: AMES SALMONELLA TYPHIMURIUM, Strain/Indicator: TA98, Metabolic Activation: RAT, LIVER, S-9, PCB, Method: PREINCUBATION) “inactive; negative”; under setting [3], “inactive; negative”; (Test System: AMES SALMONELLA TYPHIMURIUM, Strain/Indicator: TA100, Metabolic Activation: RAT, LIVER, S-9, PCB, Method: PREINCUBATION) “inactive; negative”.

Take `Cc1cc2c3c(ccc2c2ccccc12)C(O)C(O)[C@@H]1O[C@@H]31` (some centres not stated): the mutagenic call under setting [3] was “inactive; negative”.

For the molecule `Oc1cc2ccc3cccc4cc5c(c1-c1ccccc1-5)c2c34`, the mutagenic call under setting [5] is “inactive; negative”.

For `Nn1c2ccccc2c2cnccc21`, the mutagenic call is “active; positive” (Test System: AMES SALMONELLA TYPHIMURIUM, Strain/Indicator: TA1537, Metabolic Activation: NONE, Method: PREINCUBATION) and “inactive; negative” (Test System: AMES SALMONELLA TYPHIMURIUM, Strain/Indicator: TA1537, Metabolic Activation: RAT, LIVER, S-9, PHENOBARBITAL, Method: PREINCUBATION).

As for `NN(Cc1ccccc1)Cc1ccccc1`, the mutagenic call reads like this: under setting [4], “inactive; negative”; under setting [5], “inactive; negative”; (Test System: AMES SALMONELLA TYPHIMURIUM, Strain/Indicator: TA102, Metabolic Activation: NONE, Method: STANDARD PLATE) “inactive; negative”; (Test System: AMES SALMONELLA TYPHIMURIUM, Strain/Indicator: TA102, Metabolic Activation: RAT, LIVER, S-9, AROCLOR 1254, Method: STANDARD PLATE) “inactive; negative”.
